Read-outs that look alike come from different tables or passages of the source.
Key:
[1] = target: T1, soluble guanylate cyclase (sGC) (Homo sapiens (Human), UniProt Q02108+Q02153); assay: sGC-HEK-cGMP assay run with SNP incubation (HEK WC assay); format: cell-based; conditions: for Emax at 10 µM: read-out: HEK WC Assay (% Emax at 10 μM/with 10 uM SNP); for Emax at 30 µM: read-out: HEK WC Assay (% Emax at 30 μM/with 10 uM SNP); for HEK WC Assay (fold increase at 30 μM in the presence of 10 μM SNP): compound at 30 μM; for EC50: in the presence of 10 uM SNP
In short: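 EC50 values derive from concentration-response curves of intracellular cGMP in HEK293 cells, which express sGC endogenously. Compound and sodium nitroprusside were co-incubated 10 min at 37 °C after a 15-min 0.5 mM IBMX step, with 0.1 M HCl lysis and 1% DMSO vehicle.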

[2] = target: T2, Human soluble guanylate cyclase enzyme (hsGC) (Homo sapiens (Human), UniProt Q02108+Q02153); assay: Purified human sGC enzyme activity assay; format: biochemical; conditions: 30 μM compound, without the addition of SNP
In short: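 Values are fold-change of sGC specific activity, nmoles cGMP per mg enzyme per min, relative to DMSO controls. Reactions: 5 ng human enzyme, 300 μM GTP, 1 mM IBMX, 2 mM MgCl2/DTT, 0.1 M Tris pH 8.0, compound 10 or 30 μM final, 37° C for 30 minutes, methanol quench. cGMP read against a 0.078-10 μM final standard curve.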

[3] = target: T2, Human soluble guanylate cyclase enzyme (hsGC); assay: Purified human sGC enzyme synergy assay in the presence of 1 μM sodium nitroprusside (SNP); format: biochemical; conditions: 30 μM compound, with the addition of SNP
In short: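 Fold-change in cGMP-forming specific activity (nmol/mg/min) versus DMSO, with 1 μM SNP present throughout. Reactions held 30 min at 37 °C with 10 or 30 μM compound, 5 ng human sGC, 300 μM GTP, 1 mM IBMX and 2 mM MgCl2 at pH 8.0, then stopped with cold methanol.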

Thoracic aortic rings = assay: Alternative thoracic aortic rings assay (Example 19b; resting tension as 100% inhibition); parameters: species or system rat; conditions: for inhibition at 1 µM: read-out: Percent Relaxation at 1 μM; for inhibition at 3 µM: read-out: Percent Relaxation at 3 μM; for inhibition at 10 µM: read-out: Percent Relaxation at 10 μM; for EC50: read-out: Aortic Ring EC50
In short: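 EC50 values come from cumulative concentration-response relaxation of phenylephrine (100 ng/mL)-contracted thoracic aortic rings from 275-299 g male Sprague-Dawley rats. Rings were equilibrated at 1.0 g tension in oxygenated Krebs-Henseleit at 37 °C, with compounds given in DMSO and tension measured isometrically.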

[4] = target: T1, soluble guanylate cyclase (sGC); assay: sGC-HEK-cGMP assay run in the absence of SNP (HEK WC assay); format: cell-based; conditions: compound at 30 μM, absence of SNP
In short: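 Intracellular cGMP was measured by LC/MS, using a standard curve, in HEK293 cells treated with compound for 10 min at 37° C after a 15 min 0.5 mM IBMX pretreatment, with no SNP present. Lysis and quench used 0.1 M HCl. EC50 values came from concentration-response fits.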

[5] = Rattus norvegicus, 10 μM, Table 10A
[6] = read-out: HEK WC Assay (% Emax at 10 μM with 10 uM SNP)
[7] = read-out: HEK WC Assay (% Emax at 30 μM with 10 uM SNP)
[8] = read-out: HEK WC Assay in the presence of 10 uM SNP EC50

T2 sequence (Q02153 whole entry): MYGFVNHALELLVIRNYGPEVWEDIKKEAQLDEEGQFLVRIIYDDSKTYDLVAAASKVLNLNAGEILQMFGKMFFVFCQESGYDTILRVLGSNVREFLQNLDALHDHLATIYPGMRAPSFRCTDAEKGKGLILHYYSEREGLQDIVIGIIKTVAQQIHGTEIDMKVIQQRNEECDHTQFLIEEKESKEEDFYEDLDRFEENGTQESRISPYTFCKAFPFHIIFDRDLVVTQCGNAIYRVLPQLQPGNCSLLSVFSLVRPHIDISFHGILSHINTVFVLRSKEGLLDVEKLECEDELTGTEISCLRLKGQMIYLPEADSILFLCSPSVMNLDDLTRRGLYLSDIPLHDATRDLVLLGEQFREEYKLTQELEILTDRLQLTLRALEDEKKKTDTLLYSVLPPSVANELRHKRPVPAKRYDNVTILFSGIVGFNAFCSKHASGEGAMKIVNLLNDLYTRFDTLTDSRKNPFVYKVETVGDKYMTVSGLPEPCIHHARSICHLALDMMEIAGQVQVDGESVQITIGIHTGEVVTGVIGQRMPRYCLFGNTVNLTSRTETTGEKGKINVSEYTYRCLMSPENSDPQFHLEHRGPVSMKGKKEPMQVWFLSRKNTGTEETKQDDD
T2 sequence (Q02108 whole entry): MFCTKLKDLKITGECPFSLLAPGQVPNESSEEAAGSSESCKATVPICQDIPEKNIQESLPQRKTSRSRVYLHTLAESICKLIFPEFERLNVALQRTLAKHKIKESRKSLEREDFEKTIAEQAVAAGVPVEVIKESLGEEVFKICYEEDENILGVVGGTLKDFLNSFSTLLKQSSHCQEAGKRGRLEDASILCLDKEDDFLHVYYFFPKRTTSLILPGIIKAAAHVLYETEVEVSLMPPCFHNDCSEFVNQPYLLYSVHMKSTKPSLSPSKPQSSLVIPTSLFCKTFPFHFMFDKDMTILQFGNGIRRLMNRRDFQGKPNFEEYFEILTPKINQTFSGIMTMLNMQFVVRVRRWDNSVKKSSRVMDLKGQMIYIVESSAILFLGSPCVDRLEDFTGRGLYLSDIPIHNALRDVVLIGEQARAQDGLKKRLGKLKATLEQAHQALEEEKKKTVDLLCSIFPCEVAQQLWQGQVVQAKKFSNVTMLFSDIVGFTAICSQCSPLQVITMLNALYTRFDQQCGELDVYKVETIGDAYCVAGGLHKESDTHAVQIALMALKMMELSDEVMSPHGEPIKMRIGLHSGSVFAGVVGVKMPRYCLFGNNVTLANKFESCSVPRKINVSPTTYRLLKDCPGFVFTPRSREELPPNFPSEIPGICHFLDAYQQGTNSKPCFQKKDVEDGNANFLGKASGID
T1 sequence (Q02153 whole entry): as the sequence (Q02153 whole entry) above
T1 sequence (Q02108 whole entry): as the sequence (Q02108 whole entry) above

Row | SMILES | Emax at 10 µM [1] [%] | Emax at 30 µM [1] [%] | sGC Enzyme (fold increase at 30 μM) [2] | sGC Enzyme (fold increase at 30 μM with SNP) [3] | inhibition at 1 µM (Thoracic aortic rings; Rattus norvegicus, Table 10A) [%] | inhibition at 3 µM (Thoracic aortic rings; Rattus norvegicus, Table 10A) [%] | inhibition at 10 µM (Thoracic aortic rings; [5]) [%] | EC50 (Thoracic aortic rings; Rattus norvegicus, Table 10A) [µM] | HEK WC Assay (fold increase at 30 μM in the absence of SNP) [4] | HEK WC Assay (fold increase at 30 μM in the presence of 10 μM SNP) [1] | Emax [1, 6] [%] | Emax [1, 7] [%] | EC50 [1, 8] [µM] | Percent Relaxation at 1 μM (Thoracic aortic rings; Table 10B) | Percent Relaxation at 3 μM (Thoracic aortic rings; Table 10B) | Percent Relaxation at 10 μM (Thoracic aortic rings; 10 μM, Table 10B) | EC50 (Thoracic aortic rings; Table 10B) [µM] | EC50 [1] [µM] | Emax ([1]; read-out: HEK WC Assay (% Emax at 1 μM with 10 uM SNP)) [%]
1 | COC(=O)N(C)c1cnc(-c2cc(-c3ccon3)n(Cc3ccccc3F)n2)nc1N [Compound I-105] | 80 to 100 | 100 to 120 | C (C = 5 to <10 fold increase) | C (C = 5 to <10 fold increase) | 60 to 80 | 80 to 100 | 100 to 120 | < 2 | – | – | – | – | – | – | – | – | – | – | –
2 | N#Cc1cnc(-c2cc(-c3ccon3)n(Cc3ccccc3F)n2)nc1O [Compound I-110] | 60 to 80 | 60 to 80 | B (B = 2 to <5 fold increase) | C (C = 5 to <10 fold increase) | 40 to 60 | 60 to 80 | 80 to 100 | < 2 | – | – | – | – | – | – | – | – | – | – | –
3 | CC(=O)Nc1cnc(-c2cc(-c3ccon3)n(Cc3ccccc3F)n2)nc1N [Compound I-112, N-(4-amino-2-(1-(2-fluorobenzyl)-5-(isoxazol-3-yl)-1H-pyrazol-3-yl)pyrimidin-5-yl)acetamide] | 100 to 120 | 80 to 100 | C (C = 5 to <10 fold increase) | D (D = 10 to <30 fold increase) | 80 to 100 | > 120 | 100 to 120 | < 2 | – | – | – | – | – | – | – | – | – | – | –
4 | CN(C(=O)OC(C)(C)C)c1cnc(-c2cc(-c3ccon3)n(Cc3ccccc3F)n2)nc1N [Compound I-115] | 80 to 100 | 60 to 80 | C (C = 5 to <10 fold increase) | D (D = 10 to <30 fold increase) | 20 to 40 | 40 to 60 | 80 to 100 | 2 to 4 | – | – | – | – | – | – | – | – | – | – | –
5 | Nc1cc(C(F)(F)F)nc(-c2cc(-c3ccon3)n(Cc3ccccc3F)n2)n1 [Compound I-117] | 10 to 20 | 0 to 10 | A (A = no increase to <2 fold increase) | A (A = no increase to <2 fold increase) | – | – | – | – | B (B = 1 to <2 fold increase) | B (B = 1 to <2 fold increase) | 10 to 20 | 0 to 10 | – | – | – | – | – | – | –
6 | C=CCOC1(c2cnc(-c3cc(-c4ccon4)n(Cc4ccccc4F)n3)nc2N)CC1 [Compound I-118, 5-(1-(allyloxy)cyclopropyl)-2-(1-(2-fluorobenzyl)-5-(isoxazol-3-yl)-1H-pyrazol-3-yl)pyrimidin-4-amine] | 60 to 80 | 40 to 60 | C (C = 5 to <10 fold increase) | D (D = 10 to <30 fold increase) | – | – | – | – | D (D = 5 to <10 fold increase) | E (E = 10 to <20 fold increase) | 60 to 80 | 40 to 60 | 60 to 100 | – | – | – | – | – | –
7 | Nc1nc(-c2cc(-c3ccon3)n(Cc3ccccc3F)n2)ncc1C1(O)CC1 [Compound I-119, I-(4-amino-2-(1-(2-fluorobenzyl)-5-(isoxazol-3-yl)-1H-pyrazol-3-yl)pyrimidin-5-yl)cyclopropanol] | > 120 | > 120 | B (B = 2 to <5 fold increase) | D (D = 10 to <30 fold increase) | 20 to 40 | 60 to 80 | 100 to 120 | < 2 | C (C = 2 to <5 fold increase) | E (E = 10 to <20 fold increase) | 100 to 120 | 100 to 120 | < 20 | C (C = 20 to <40%) | E (E = 60 or <80%) | G (G = 100 to <120%) | < 2 | – | –
8 | Nc1nc(-c2cc(-c3ccon3)n(Cc3ccccc3F)n2)ncc1N=C(c1ccccc1)c1ccccc1 [Compound I-123, N5-(diphenylmethylene)-2-(1-(2-fluorobenzyl)-5-(isoxazol-3-yl)-1H-pyrazol-3-yl)pyrimidine-4,5-diamine] | 10 to 20 | 20 to 40 | A (A = no increase to <2 fold increase) | B (B = 2 to <5 fold increase) | – | – | – | – | B (B = 1 to <2 fold increase) | C (C = 2 to <5 fold increase) | 10 to 20 | 20 to 40 | – | – | – | – | – | – | –
9 | CC(C)(C)CC(=O)Nc1cnc(-c2cc(-c3ccon3)n(Cc3ccccc3F)n2)nc1N [Compound I-124] | > 120 | 60 to 80 | D (D = 10 to <30 fold increase) | D (D = 10 to <30 fold increase) | – | – | – | – | E (E = 10 to <20 fold increase) | F (F = 20 to <30 fold increase) | 100 to 120 | 60 to 80 | – | – | – | – | – | < 20 | –
10 | Nc1nc(-c2cc(-c3ccon3)n(Cc3ccccc3F)n2)ncc1NC(=O)OCc1ccccc1 [Compound I-125] | 80 to 100 | 80 to 100 | C (C = 5 to <10 fold increase) | D (D = 10 to <30 fold increase) | – | – | – | – | D (D = 5 to <10 fold increase) | F (F = 20 to <30 fold increase) | 80 to 100 | 80 to 100 | < 20 | – | – | – | – | – | –
11 | Nc1nc(-c2cc(-c3ccon3)n(Cc3ccccc3F)n2)ncc1NC(=O)c1ccccc1 [Compound I-126] | > 120 | 100 to 120 | D (D = 10 to <30 fold increase) | D (D = 10 to <30 fold increase) | 80 to 100 | 100 to 120 | – | < 2 | E (E = 10 to <20 fold increase) | F (F = 20 to <30 fold increase) | 100 to 120 | 100 to 120 | < 20 | F (F = 80 to <100%) | G (G = 100 to <120%) | – | < 2 | – | –
12 | CC(C)(C)NC(=O)c1cnc(-c2cc(-c3ccon3)n(Cc3ccccc3F)n2)nc1N [Compound I-136] | 20 to 40 | 20 to 40 | C (C = 5 to <10 fold increase) | D (D = 10 to <30 fold increase) | – | – | – | – | D (D = 5 to <10 fold increase) | E (E = 10 to <20 fold increase) | 60 to 80 | 20 to 40 | – | – | – | – | – | < 20 | 40 to 60
13 | COc1ccc(C2=Nc3nc(-c4cc(-c5ccon5)n(Cc5ccccc5F)n4)ncc3C(C)(C)O2)cc1 [Compound I-137] | 100 to 120 | 20 to 40 | B (B = 2 to <5 fold increase) | C (C = 5 to <10 fold increase) | – | – | – | – | C (C = 2 to <5 fold increase) | D (D = 5 to <10 fold increase) | 40 to 60 | 40 to 60 | 40 to 60 | – | – | – | – | – | –
